The source of these data is patent US20110086834A1, “ALKYNYL ALCOHOLS AS KINASE INHIBITORS” (AMGEN INC., priority 2008, published 2011).

This assay deals with T1, NIK (Homo sapiens, UniProt Q99558).
T1 construct: Both assays utilize a truncated form of NIK containing only the catalytic domain; made in house; host or cells: baculovirus expression system (insect cells implied)
The assay can be described thus: homogenous time resolved fluorescence (HTRF) assay for NIK Ki measurement. The assay is classed as biochemical. (In general: TR-FRET usually uses a lanthanide donor and a delayed reading to cut background.)

Setting [1] is: truncated NIK (catalytic domain only), autophosphorylation, 10 nM enzyme, 20, 100, 200 or 500 μM ATP, room temperature, 2 hours, read-out: Ki activity in the homogenous time resolved fluorescence (HTRF) assay for NIK.

Read-outs that look alike come from different tables or passages of the source.

T1 sequence (Q99558 400-655 limits assumed): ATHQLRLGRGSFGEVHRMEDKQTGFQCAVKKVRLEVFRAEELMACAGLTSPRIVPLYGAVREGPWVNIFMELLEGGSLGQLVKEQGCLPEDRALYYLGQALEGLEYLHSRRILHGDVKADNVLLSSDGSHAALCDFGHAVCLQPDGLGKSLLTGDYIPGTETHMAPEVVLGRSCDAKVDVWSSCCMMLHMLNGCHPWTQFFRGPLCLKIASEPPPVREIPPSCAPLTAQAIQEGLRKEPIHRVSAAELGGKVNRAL

For `CN1CCC2(CC1)CN(c1nc(N)ncc1Cl)c1cc(C#CC(C)(O)c3nccs3)ccc12` (stereo not drawn) [Example 282, 4-(1-(2-Amino-5-chloro-4-pyrimidinyl)-1′-methyl-1,2-dihydrospiro[indole-3,4′-piperidin]-6-yl)-2-(1,3-thiazol-2-yl)-3-butyn-2-ol], the Ki under setting [1] was under 1 µM.
The same measure, in the same setting: with `Cc1nc(C)c(C(C)(O)C#Cc2ccc3c(c2)N(c2ccnc(N)n2)CC3)s1` (stereo not drawn) [Example 283, 4-(1-(2-Amino-4-pyrimidinyl)-2,3-dihydro-1H-indol-6-yl)-2-(2,4-dimethyl-1,3-thiazol-5-yl)-3-butyn-2-ol] the figure was 1 to 30 µM; with `CC(O)(C#Cc1ccc2c(c1)N(c1ccnc(N)n1)CC2)c1sccc1Cl` (stereo not drawn) [Example 284, 4-(1-(2-Amino-4-pyrimidinyl)-2,3-dihydro-1H-indol-6-yl)-2-(3-chloro-2-thienyl)-3-butyn-2-ol], under 1 µM; with `Cc1nc(C(C)(O)C#Cc2ccc3c(c2)N(c2ccnc(N)n2)CC3)sc1C` (stereo not drawn) [Example 285, 4-(1-(2-Amino-4-pyrimidinyl)-2,3-dihydro-1H-indol-6-yl)-2-(4,5-dimethyl-1,3-thiazol-2-yl)-3-Butyn-2-ol], 1 to 30 µM.
Same read-out and setting: with `Cc1csc(C(C)(O)C#Cc2ccc3c(c2)N(c2ccnc(N)n2)CC3)n1` (stereo not drawn) [Example 287, 4-(1-(2-Amino-4-pyrimidinyl)-2,3-dihydro-1H-indol-6-yl)-2-(4-methyl-1,3-thiazol-2-yl)-3-Butyn-2-ol] the figure was 1 to 30 µM.
The same measure, in the same setting: next, `Cc1nc(C(C)(O)C#Cc2ccc3c(c2)N(c2ccnc(N)n2)CC3)cs1` (stereo not drawn) [Example 288, 4-(1-(2-Amino-4-pyrimidinyl)-2,3-dihydro-1H-indol-6-yl)-2-(2-methyl-1,3-thiazol-4-yl)-3-butyn-2-ol]: under 1 µM; `Cc1cnc(C(C)(O)C#Cc2ccc3c(c2)N(c2ccnc(N)n2)CC3)s1` (stereo not drawn) [Example 289, 4-(1-(2-Amino-4-pyrimidinyl)-2,3-dihydro-1H-indol-6-yl)-2-(5-methyl-1,3-thiazol-2-yl)-3-Butyn-2-ol]: under 1 µM.
Turning to `CC(O)(C#Cc1ccc2c(c1)N(c1ccnc(N)n1)CC2)c1cccnc1` (stereo not drawn) [Example 290, 4-(1-(2-Amino-4-pyrimidinyl)-2,3-dihydro-1H-indol-6-yl)-2-(3-pyridinyl)-3-butyn-2-ol], the Ki under setting [1] was under 1 µM.
The same measure, in the same setting: with `CC(O)(C#Cc1ccc2c(c1)N(c1ccnc(N)n1)CC2)c1ncco1` (stereo not drawn) [Example 291, 4-(1-(2-amino-4-pyrimidinyl)-2,3-dihydro-1H-indol-6-yl)-2-(1,3-oxazol-2-yl)-3-butyn-2-ol] the figure was under 1 µM; with `CC(O)(C#Cc1ccc2ncc(-c3ccnc(N)n3)n2c1)c1nccs1` (stereo not drawn) [Example 292, 4-(3-(2-Amino-4-pyrimidinyl)imidazo[1,2-a]pyridin-6-yl)-2-(1,3-thiazol-2-yl)-3-butyn-2-ol], under 1 µM.
With `CC(O)(C#Cc1ccc2c(c1)N(c1ccnc(N)n1)CC2)C1CCCC1` (stereo not drawn) [Example 293, 4-(1-(2-Amino-4-pyrimidinyl)-2,3-dihydro-1H-indol-6-yl)-2-cyclopentyl-3-butyn-2-ol], the Ki under setting [1] is under 1 µM.
Same read-out and setting: with `C[C@@](O)(C#Cc1ccc2c(c1)N(c1ccnc(N)n1)CC2)c1nccs1` [Example 294, (2R)-4-(1-(2-amino-4-pyrimidinyl)-2,3-dihydro-1H-indol-6-yl)-2-(1,3-thiazol-2-yl)-3-Butyn-2-ol] the figure was under 1 µM.
Same read-out and setting: next, `Cc1[nH]c2ccc(C#CC(C)(O)c3nccs3)cc2c1-c1ccncc1` (stereo not drawn) [Example 295, 4-(2-Methyl-3-(4-pyridinyl)-1H-indol-5-yl)-2-(1,3-thiazol-2-yl)-3-butyn-2-ol]: under 1 µM.
The same measure, in the same setting: with `C[C@@](O)(C#Cc1ccc2ncc(-c3nc(N)ncc3Cl)n2c1)c1nccs1` [Example 296, (2R)-4-(3-(2-amino-5-chloro-4-pyrimidinyl)imidazo[1,2-a]pyridin-6-yl)-2-(1,3-thiazol-2-yl)-3-butyn-2-ol] the figure was under 1 µM; with `C[C@](O)(C#Cc1ccc2c(c1)N(c1ccnc(N)n1)CC2)c1nccs1` [Example 297, (2S)-4-(1-(2-amino-4-pyrimidinyl)-2,3-dihydro-1H-indol-6-yl)-2-(1,3-thiazol-2-yl)-3-butyn-2-ol], under 1 µM; with `Nc1ncc(Cl)c(-c2cnc3ccc(C#CC4(O)CCCC4)cn23)n1` [Example 298, 1-((3-(2-amino-5-chloro-4-pyrimidinyl)imidazo[1,2-a]pyridin-6-yl)ethynyl)-cyclopentanol], under 1 µM.
Take `CC(O)(C#Cc1ccc2ccn(-c3ccncc3)c2c1)c1nccs1` (stereo not drawn) [Example 299, 4-(1-(4-Pyridinyl)-1H-indol-6-yl)-2-(1,3-thiazol-2-yl)-3-butyn-2-ol]: under setting [1], the inhibition constant (Ki) is under 1 µM.
`Cc1cnc(C(C)(O)C#Cc2ccc3ncc(-c4nc(N)ncc4Cl)n3c2)s1` (stereo not drawn) [Example 300, 4-(3-(2-Amino-5-chloro-4-pyrimidinyl)imidazo[1,2-a]pyridin-6-yl)-2-(5-methyl-1,3-thiazol-2-yl)-3-butyn-2-ol]: the inhibitory constant (Ki) under setting [1] was under 1 µM.
The same measure, in the same setting: next, `Cc1cnc(C(C)(O)C#Cc2ccc3c(c2)N(c2nc(N)ncc2Cl)CC32CN(C)C2)s1` (stereo not drawn) [Example 301, 4-(1′-(2-Amino-5-chloro-4-pyrimidinyl)-1-methyl-1′,2′-dihydrospiro[azetidine-3,3′-indol]-6′-yl)-2-(5-methyl-1,3-thiazol-2-yl)-3-butyn-2-ol]: under 1 µM.
On the same count and under the same terms, with `CC(O)(C#Cc1ccc2ncc(-c3ccncn3)n2c1)c1nccs1` (stereo not drawn) [Example 302, 4-(3-(4-pyrimidinyl)imidazo[1,2-a]pyridin-6-yl)-2-(1,3-thiazol-2-yl)-3-butyn-2-ol] the figure was under 1 µM.
Same read-out and setting: with `Cc1cnc(C(C)(O)C#Cc2ccc3c(c2)N(c2nc(N)ncc2Cl)CC3(C)C)s1` (stereo not drawn) [Example 303, 4-(1-(2-Amino-5-chloro-4-pyrimidinyl)-3,3-dimethyl-2,3-dihydro-1H-indol-6-yl)-2-(5-methyl-1,3-thiazol-2-yl)-3-butyn-2-ol] the figure was under 1 µM; with `CC(O)(C#Cc1ccc2c(c1)N(c1nc(N)ncc1Cl)CC2(C)C)c1ccccn1` (stereo not drawn) [Example 304, 4-(1-(2-Amino-5-chloro-4-pyrimidinyl)-3,3-dimethyl-2,3-dihydro-1H-indol-6-yl)-2-(2-pyridinyl)-3-Butyn-2-ol], under 1 µM.
`CC(O)(C#Cc1ccc2c(c1)N(c1nc(N)ncc1Cl)CC2(C)C)c1ncco1` (stereo not drawn) [Example 305, 4-(1-(2-Amino-5-chloro-4-pyrimidinyl)-3,3-dimethyl-2,3-dihydro-1H-indol-6-yl)-2-(1,3-oxazol-2-yl)-3-Butyn-2-ol]: the Ki under setting [1] is under 1 µM.
Take `CC1(C)CN(c2ccncc2)c2cc(C#C[C@@](C)(O)c3nccs3)ccc21` [Example 306, (2R)-4-(3,3-dimethyl-1-(4-pyridinyl)-2,3-dihydro-1H-indol-6-yl)-2-(1,3-thiazol-2-yl)-3-Butyn-2-ol]: the Ki under setting [1] is under 1 µM.
Turning to `CC(O)(C#Cc1ccc2c(c1)N(c1ccncc1)CC2(C)C)c1ncco1` (stereo not drawn) [Example 307, 4-(3,3-Dimethyl-1-(4-pyridinyl)-2,3-dihydro-1H-indol-6-yl)-2-(1,3-oxazol-2-yl)-3-butyn-2-ol], the Ki under setting [1] is under 1 µM.
Regarding `CC(O)(C#Cc1ccc2c(c1)N(c1nc(N)ncc1Cl)CC2)c1ccccn1` (stereo not drawn) [Example 308, 4-(1-(2-Amino-5-chloro-4-pyrimidinyl)-2,3-dihydro-1H-indol-6-yl)-2-(2-pyridinyl)-3-butyn-2-ol], under setting [1], the Ki was under 1 µM.
As for `CC(O)(C#Cc1ccc2ncc(-c3nc(N)ncc3Cl)n2c1)c1ncco1` (stereo not drawn) [Example 309, 4-(3-(2-Amino-5-chloro-4-pyrimidinyl)imidazo[1,2-a]pyridin-6-yl)-2-(1,3-oxazol-2-yl)-3-Butyn-2-ol], the Ki under setting [1] is under 1 µM.
Regarding `CC(O)(C#Cc1ccc2c(c1)N(c1ccncc1)CC2(C)C)c1ccccn1` (stereo not drawn) [Example 310, 4-(3,3-Dimethyl-1-(4-pyridinyl)-2,3-dihydro-1H-indol-6-yl)-2-(2-pyridinyl)-3-butyn-2-ol], under setting [1], the Ki was under 1 µM.
As for `Cc1cnc(C(C)(O)C#Cc2ccc3c(c2)N(c2ccncc2)CC3(C)C)s1` (stereo not drawn) [Example 311, 4-(3,3-Dimethyl-1-(4-pyridinyl)-2,3-dihydro-1H-indol-6-yl)-2-(5-methyl-1,3-thiazol-2-yl)-3-butyn-2-ol], the Ki under setting [1] was under 1 µM.
Still for that read-out and setting: next, `CC(O)(C#Cc1ccc2c(c1)N(c1ncncc1Cl)CC2(C)C)c1nccs1` (stereo not drawn) [Example 312, 4-(1-(5-chloro-4-pyrimidinyl)-3,3-dimethyl-2,3-dihydro-1H-indol-6-yl)-2-(1,3-thiazol-2-yl)-3-butyn-2-ol]: under 1 µM.
Still for that read-out and setting: next, `CC(O)(C#Cc1ccc2c(c1)N(c1ccncc1Cl)CC2(C)C)c1nccs1` (stereo not drawn) [Example 313, 4-(1-(3-Chloro-4-pyridinyl)-3,3-dimethyl-2,3-dihydro-1H-indol-6-yl)-2-(1,3-thiazol-2-yl)-3-butyn-2-ol]: 1 to 30 µM; `CC(O)(C#Cc1ccc2c(c1)N(c1ccncc1Cl)CC2(C)C)c1ncco1` (stereo not drawn) [Example 314, 4-(1-(3-chloro-4-pyridinyl)-3,3-dimethyl-2,3-dihydro-1H-indol-6-yl)-2-(1,3-oxazol-2-yl)-3-butyn-2-ol]: under 1 µM.
On to `CC(O)(C#Cc1cccc(Oc2nc(N)ncc2Cl)c1)c1nccs1` (stereo not drawn) [Example 315, 4-(3-((2-amino-5-chloro-4-pyrimidinyl)oxy)phenyl)-2-(1,3-thiazol-2-yl)-3-butyn-2-ol], for which, under setting [1], the Ki is under 1 µM.
Compound `Cc1cnc(C(C)(O)C#Cc2ccc3c(c2)N(c2ccnc(N)n2)CC3)o1` (stereo not drawn) [Example 316, 4-(1-(2-Amino-4-pyrimidinyl)-2,3-dihydro-1H-indol-6-yl)-2-(5-methyl-1,3-oxazol-2-yl)-3-Butyn-2-ol] gave a Ki of under 1 µM.
Consider `CC(O)(C#Cc1ccc2c(c1)N(c1nc(N)ncc1Cl)CC21CCCC1)c1nccs1` (stereo not drawn) [Example 317, 4-(1′-(2-amino-5-chloro-4-pyrimidinyl)-1′,2′-dihydrospiro[cyclopentane-1,3′-indol]-6′-yl)-2-(1,3-thiazol-2-yl)-3-Butyn-2-ol], for which the Ki under setting [1] is under 1 µM.
As for `C[C@@](O)(C#Cc1ccc2c(c1)N(c1nc(N)ncc1Cl)CC21CCCC1)c1nccs1` [Example 318], the Ki under setting [1] was under 1 µM.

By Ki is commonly meant a dissociation constant, usually derived from enzyme kinetics or from competition with a known ligand.
